Test [1] has as its system T. gondii tachyzoites (RH-YFP strain). Briefly: In vitro challenge assay for Toxoplasma tachyzoites (RH-YFP in HFF, fluorescence). The test is classed as cell-based, Toxoplasma gondii. Conditions: Toxoplasma gondii; RH-YFP; read-out: Tachy IC50. The procedure: Human foreskin fibroblasts (HFF) were cultured on a flat, clear-bottomed, black 96-well plate to 90% to 100% confluence. IMDM (1×, [+] glutamine, [+] 25 mM HEPES, [+] Phenol red, 10% FBS [gibco, Denmark]) was removed from each well and replaced with IMDM-C (1×, [+] glutamine, [+] 25 mM HEPES, [−] Phenol red, 10% FBS)[Gibco, Denmark]). Type I RH parasites expressing Yellow Fluorescent Protein (RH-YFP) were lysed from host cells by double passage through a 27-gauge needle. Parasites were counted and diluted to 32,000/mL in IMDM-C. Fibroblast cultures were infected with 3200 tachyzoites of the Type I RH-YFP strain and returned to incubator at 37° C. for 1-2 hours to allow for infection. Diluted solutions of the compounds were made using IMDM-C, and 20 μl were added to each designated well, with triplicates for each condition. Controls included pyrimethamine/sulfadiazine (current standard of treatment), DMSO only, fibroblast only, and an untreated YFP gradient with 2 fold dilutions of the parasite. Cells were incubated at 37° C. for 72 hours. The plates were read using a fluorimeter (Synergy H4 Hybrid Reader, BioTek) To ascertain the amount of yellow fluorescent protein, in relative fluorescence units (RFU), as a measure of parasite burden after treatment. Compounds were not considered effective or pursued for further analysis if there were no signs of inhibition at 1 μM. Data was collected using Gen5 software and analyzed with Excel.
Protocol adapted from Fomovska, et. al. (18,19). Human foreskin fibroblasts (HFF) were cultured on a flat, clear-bottomed, black 96-well plate to 90% to 100% confluence. IMDM (1×, [+] glutamine, [+] 25 mM HEPES, [+] Phenol red, 10% FBS [gibco, Denmark]) was removed from each well and replaced with IMDM-C (1×, [+] glutamine, [+] 25 mM HEPES, [−] Phenol red, 10% FBS)[gibco, Denmark]). Type I RH parasites expressing Yellow Fluorescent Protein (RH-YFP) were lysed from host cells by double passage through a 27-gauge needle. Parasites were counted and diluted to 32,000/mL in IMDM-C. Fibroblast cultures were infected with 3200 tachyzoites of the Type I RH strain expressing Yellow Fluorescent Protein (RH-YFP) and returned to incubator at 37° C. for 1-2 hours to allow for infection (15). Various concentrations of the compounds were made using IMDM-C, and 20 μl were added to each designated well, with triplicates for each condition. Controls included pyrimethamine/sulfadiazine (current standard of treatment), 0.1% DMSO only, fibroblast only, and an untreated YFP gradient with 2 fold dilutions of the parasite. Cells were incubated at 37° C. for 72 hours. Plates were read using a fluorimeter (Synergy H4 Hybrid Reader, BioTek) to ascertain the amount of yellow fluorescent protein, in relative fluorescence units (RFU), as a measure of parasite burden after treatment. Data was collected using Gen5 software. IC50 was calculated by graphical analysis in Excel.
An initial screening assay of 10 μM, 1 μM, 100 nM, and 10 nM was performed. Compounds were not considered effective or pursued for further analysis if there were no signs of inhibition of tachyzoites at 1 μM. If compounds did appear to be effective at 1 μM, another experiment was conducted to assess effect at 1 μM, 500 nM, 250 nM, 125 nM, 62.5 nM, and 31.25 nM.
Protocol adapted from Fomovska, et. al. (Fomovska A, Huang Q, El Bissati K, Mui E J, Witola W H, Cheng G, et al. Novel N-Benzoyl-2-Hydroxybenzamide Disrupts Unique Parasite Secretory Pathway. Antimicrob Agents Chemother [Internet]. 2012 May [cited 2015 Jul. 8]; 56(5):2666-82; Fomovska A, Wood R D, Mui E, Dubey J P, Ferreira L R, Hickman M R, et al. Salicylanilide inhibitors of Toxoplasma gondii. J Med Chem. 2012 Oct. 11; 55(19):8375-91.). Human foreskin fibroblasts (HFF) were cultured on a flat, clear-bottomed, black 96-well plate to 90% to 100% confluence. […]

Test [2] relates to P. falciparum strains D6, TM91-C235, W2, C2B. The test is described as follows: Malaria SYBR Green I-Based Fluorescence (MSF) Assay. It counts as cell-based, Plasmodium falciparum. The settings on record: Plasmodium falciparum. The procedure: Testing of P. falciparum: D6 is a drug sensitive strain from Sierra Leone, C235 is a multi-drug resistant strain from Thailand, W2 is a chloroquine resistant strain from Thailand, and C2B has resistance to a variety of drugs including atovaquone.
D6 is a drug sensitive strain from Sierra Leone, C235 is a multi-drug resistant strain from Thailand, W2 is a chloroquine resistant strain from Thailand, and C2B has resistance to a variety of drugs including atovaquone. These assays were performed as described.
(§1) Compound activity against P. falciparum, a causative agent of malaria, was tested using the Malaria SYBR Green I—Based Fluorescence (MSF) Assay. This; microtiter plate drug sensitivity assay uses the presence of malarial DNA as a measure of parasitic proliferation in the presence of antimalarial drugs or experimental compounds based on modifications of previously described methods by Plouffe et al (20) and Johnson et al. As the intercalation of SYBR Green I dye and its resulting fluorescence is relative to parasite growth, a test compound that inhibits the growth of the parasite will result in a lower fluorescence.
Selected compounds were examined for activity against four strains of P. falciparum: D6 (CDC/Sierra Leone), a drug-sensitive strain readily killed by chloroquine, TM91-C235, a multi-drug resistant strain resistant to chloroquine, W2, a chloroquine resistant strain from Thailand, and C2B has resistance to a variety of drugs including atovaquone.
D6 is a drug sensitive strain from Sierra Leone, C235 is a multi-drug resistant strain from Thailand, W2 is a chloroquine resistant strain from Thailand, and C2B has resistance to a variety of drugs including atovaquone. These assays were performed using standard protocols.
as §1, with “known in the art.” for “by Plouffe et al (20) and Johnson et al.”, “fluorescence. Selected compounds were examined for activity against four strains of P. falciparum: D6 (CDC/Sierra Leone), a drugsensitive strain readily killed by chloroquine, TM91-C235, a multi-drug resistant strain resistant to chloroquine, W2, a chloroquine resistant strain from Thailand, and C2B has resistance to a variety of drugs including atovaquone.” for “fluorescence.”

Setting [3] is: C2B strain, read-out: SYBR Green C2B IC50.
[4] abbreviates: D6 strain, read-out: Pf D6 IC50.
The mark [5] stands for this setting: D6 strain, read-out: SYBR Green D6 IC50.
Where [6] appears, read: TM91C235 strain, read-out: SYBR Green C235 IC50.
Setting [7] is: W2 strain, read-out: SYBR Green W2 IC50.

The structures appear in SMILES notation. pIC50: −log10 of the molar value. Read-outs that look alike come from different tables or passages of the source.

In general, pIC50 refers to −log10 of the IC50, conventionally taken in molar units. `Cc1[nH]c2cc(-c3ccccc3)nn2c(=O)c1-c1ccc(Oc2ccc(OC(F)(F)F)cc2)cc1` [JAG015, 5-methyl-2-phenyl-6-(4-(4-(trifluoromethoxy)phenoxy)phenyl) pyrazolo[1,5-a]pyrimidin-7(4H)-one]: the negative-log IC50 (pIC50) in test [1] is below 6.00; in test [2] (setting [3]), below 4.70; in test [2] (setting [4]) it was below 4.70; in test [2] (setting [5]) it was below 4.70; in test [2] (setting [6]), below 4.70; in test [2] (setting [7]), below 4.70.
For the compound `Cc1[nH]c2ncnn2c(=O)c1-c1ccc(Oc2ccc(OC(F)(F)F)cc2)cc1` [MJM136, 5-methyl-6-(4-(4-(trifluoromethoxy)phenoxy)phenyl)-[1,2,4]triazolo[1,5-a]pyrimidin-7(4H)-one], the pIC50 is 5.00 to 6.00 in test [1]; 6.42 in test [2] (setting [3]); 6.70 in test [2] (setting [4]); 6.70 in test [2] (setting [5]); 6.24 in test [2] (setting [6]); 6.26 in test [2] (setting [7]).
For the compound `Cc1[nH]c2c(c(=O)c1-c1ccc(Oc3ccc(OC(F)(F)F)cc3)cc1)CCC(C(F)(F)F)C2` (stereo not drawn) [JAG162, 7-Trifluromethyl-2-methyl-3(4-(4-trifluoromethoxyphenoxy)phenyl)-5,6,7,8-tetrahydroquinolin-4(1H)-one], in test [1], the pIC50 was 6.30.
With `Cc1[nH]c2c(c(=O)c1-c1ccc(Oc3ccc(Cl)cc3)cc1)CCCC2` [JAG50, 3-(4-(4-chlorophenoxy)phenyl)-2-methyl-5,6,7,8-tetrahydroquinolin-4(1H)-one], the negative logarithm of the IC50 (pIC50) in test [1] was 7.26; in test [2] (setting [4]), 7.33.
In the case of `Cc1[nH]c2c(c(=O)c1-c1ccc(Oc3cc(Cl)nc(Cl)c3)cc1)CCCC2` [AS034/ JAG148, 3-{4-[(2,6-dichloropyridin-4-yl)oxy]phenyl}-2-methyl-5,6,7,8-tetrahydro-1H-quinolin-4-one], the pIC50 in test [1] was 6.30 to 7.00.
As to `Cc1cc2[nH]c(C)c(-c3ccc(Oc4ccc(OC(F)(F)F)cc4)cc3)c(=O)n2n1` [JAG006, 2,5-dimethyl-6-(4 (4-(trifluoromethoxy)phenoxy)phenyl) pyrazolo[1,5-a]pyrimidin-7(4H)-one], the results for the negative-log IC50 (pIC50) in test [1] and in test [2] (setting [4]) were below 6.00 and 6.54, respectively.
For the compound `Cc1[nH]c2c(C#N)cnn2c(=O)c1-c1ccc(Oc2ccc(OC(F)(F)F)cc2)cc1` [JAG014, 5-methyl-7-oxo-6-(4-(4-(trifluoromethoxy)phenoxy)phenyl)-4,7-dihydropyrazolo[1,5-a]pyrimidine-3-carbonitrile], the pIC50 in test [1] is below 6.00; in test [2] (setting [3]), 6.04; in test [2] (setting [4]), 6.15; in test [2] (setting [5]) it was 6.15; in test [2] (setting [6]) it was 5.87; in test [2] (setting [7]), 5.90.
Regarding `Cc1[nH]c2c(c(=O)c1-c1ccc(Oc3cccc(C(F)(F)F)c3)cc1)CCCC2` [AS012/ JAG144, 2-methyl-3-(4-(3-(trifluoromethyl)phenoxy)phenyl)-5,6,7,8-tetrahydroquinolin-4(1H)-one], the pIC50 in test [1] is 6.52.
Same read-out and setting: to `Cc1[nH]c2c(c(=O)c1-c1ccc(Oc3ccc4c(c3)OCO4)cc1)CCCC2` [AS032, 3-[4-(2H-1,3-benzodioxo1-5-yloxy)phenyl]-2-methyl-5,6,7,8-tetrahydro-1H-quinolin-4-one] belongs 6.52 to 7.00.
As to `CSc1nc2[nH]c(C)c(-c3ccc(Oc4ccc(OC(F)(F)F)cc4)cc3)c(=O)n2n1` [JAG013, 5-methyl-2-(methylthio)-6-(4-(4-(trifluoromethoxy)phenoxy)phenyl)-[1,2,4]triazolo[1,5-a]pyrimidin-7(4H)-one], the pIC50 is below 6.00 in test [1]; 5.86 in test [2] (setting [3]); 5.88 in test [2] (setting [4]); 5.88 in test [2] (setting [5]); 5.59 in test [2] (setting [6]); 5.63 in test [2] (setting [7]).
In the case of `O=C(O)c1[nH]c2c(c(=O)c1-c1ccc(Oc3ccc(OC(F)(F)F)cc3)cc1)CCCC2` [JAG091, 3(4-(4-Trifluoromethoxyphenoxy)phenyl)-2-(carboxylate)-5,6,7,8-tetrahydroquinolin-4(1H)-one], the negative logarithm of the IC50 (pIC50) in test [1] is below 6.00.

The record behind these values is US11414385B2, “Compounds and methods for treating, detecting, and identifying compounds to treat apicomplexan parasitic diseases” (The University of Chicago, priority 2015, dated 2022).
